Common to all, as to assay: growth of human tumour cells (NCI), 48 h
Assay [1] deals with SF-268 CNS.
The subject of assay [2] is 786-0 renal.
Assay [3] concerns ACHN renal.
In assay [4] the test system is NCI/ADR-RES ovarian.
Assay [5] deals with U251 CNS.
For assay [6], the system named is IGROV1 ovarian.
Assay [7] has as its system NCI-H23 lung.
Assay [8] concerns SNB-75 CNS.
Assay [9] relates to TK-10 renal.
The subject of assay [10] is MOLT-4 leukemia.

Several values for one entry are separate records, joined by “and”; a condition that tells them apart may be missing. Equal values may be shown once.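 Dose response: 5 concentrations. Exposure: 48 h. Format: 96-well plates. Endpoint: linear interpolation; highest concentration if not reached. Here, GI50 denotes the concentration required for 50% inhibition of growth. TGI marks complete inhibition of growth.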

In the case of `O=C1C=C2C=CC3CC2(O1)C1CCCCN31` (stereo not drawn), the GI50 is 25.4 µM and 12.7 µM and 41.2 µM in assay [1]; 16.3 µM and 15.5 µM and 45.6 µM in assay [2]; 23.9 µM and 15.9 µM and 50.2 µM in [3]; 21.3 µM and 16.8 µM and 35.4 µM in assay [4]; 20 µM and 27.7 µM and 60.9 µM in assay [5]; 19.9 µM and 15 µM and 31.7 µM in assay [7]. Also, the GI50 in assay [8] is 24.2 µM and 14.6 µM and 31.7 µM; in assay [9], 17.3 µM and 13.6 µM and 31 µM. Moreover, the TGI was > 100 µM in [1]; 41.3 µM and 49.8 µM and > 100 µM in [2]; > 100 µM and 84.3 µM in assay [3]; 61.2 µM and 43.4 µM and > 100 µM in assay [4]; 62 µM and 88.8 µM and > 100 µM in assay [5]; 95 µM and 30.8 µM and > 100 µM in assay [6]. In addition, the TGI is 56.7 µM and 43.5 µM and > 100 µM in assay [7]; > 100 µM and 62.3 µM and 95.8 µM in assay [8]; 79 µM and 41.4 µM and > 100 µM in assay [9]; 72.6 µM and 56.1 µM and > 100 µM in [10].

As to `Cc1ccc(-c2c(C#N)[n+](=O)c3cc(F)c(F)cc3n2[O-])cc1`, the GI50 in [1] is 14.3 µM; in assay [2], 1.54 µM; in assay [3], 2.2 µM; in [4] it was 2.83 µM; in [5], 1.43 µM; in assay [6], 3.59 µM. Moreover, the GI50 in assay [7] is 2.33 µM; in assay [8], 19.2 µM; in assay [9], 2.37 µM; in assay [10] it was 851 nM. The TGI is 30 µM in [1]; 3.53 µM in [2]; 5.83 µM in assay [3]; 9.2 µM in assay [4]; 2.94 µM in assay [5]; > 100 µM in assay [6]. Besides, the TGI in assay [7] turned out to be 6.47 µM; in [8], 34.6 µM; in assay [9] it was 6.69 µM; in [10], 2.71 µM.

For `O=C1NC(O)c2ccccc2O1` (stereo not drawn), the TGI in [1], in assay [2], in assay [3], in assay [4], in assay [5] and in assay [6] was > 100 µM throughout. Also, the TGI in [7], in assay [8], in [9] and in [10] was > 100 µM each time.

Take `Nc1ncn(C2OC(COP(=O)(O)O)C(O)C2O)c(=O)n1` (stereo not drawn): the TGI in assay [1], in assay [2], in [3], in assay [4], in assay [5] and in [6] was > 100 µM in each case. Further, the TGI in assay [7] is > 100 µM; in assay [8], > 100 µM; in assay [9], > 100 µM; in assay [10], > 59.2 µM.

Take `COc1cccc(-n2ncc3c(N/N=C/c4ccc(C)cc4)ncnc32)c1`: the GI50 in assay [1], in [2], in assay [3], in assay [4], in assay [5] and in [6] was > 25 µM throughout. In addition, the GI50 in assay [7] is > 25 µM; in [8], > 25 µM; in [9] it was > 25 µM; in assay [10], > 25000 nM. Further, the TGI in assay [1], in [2], in [3], in assay [4], in assay [5] and in [6] was > 25 µM each time. In addition, the TGI in [7], in [8], in assay [9] and in assay [10] was > 25 µM in each case.

As for `Cc1ccc2[nH]c3c(c2c1)N=c1ccccc1=NO3`, the GI50 in assay [1] is 23.1 µM; in assay [2] it was 35 µM; in [3] it was 32.3 µM; in assay [4], 22.7 µM; in [5], 53.7 µM; in [6], 32.6 µM. Also, the GI50 in assay [7] is 75.9 µM; in [8], 25.4 µM; in assay [9] it was 38.2 µM; in assay [10], > 100000 nM. In addition, the TGI in [1] is 55.8 µM; in assay [2], > 100 µM; in assay [3], > 100 µM; in [4], 71.2 µM; in [5], > 100 µM; in assay [6] it was > 100 µM. For the same compound, the TGI in assay [7], in [8], in assay [9] and in assay [10] was > 100 µM throughout.

Consider `C=C1C(=O)O[C@H]2[C@H]1CC/C(Cn1cc(Cc3c[nH]c4ccccc34)nn1)=C\CC[C@@]1(C)O[C@@H]21`, for which the GI50 was 1.7 µM in [1]; 1.77 µM in [2]; 1.47 µM in assay [3]; 6.22 µM in assay [4]; 1.89 µM in [5]; 1.92 µM in [6]. Besides, the GI50 in assay [7] is 2.02 µM; in [8], 3.08 µM; in assay [9] it was 1.82 µM; in assay [10], 2290 nM. Moreover, the TGI in assay [1] was determined as 3.27 µM; in [2], 3.48 µM; in [3] it was 2.8 µM; in assay [4] it was 21.9 µM; in assay [5] it was 3.63 µM; in [6] it was 3.84 µM. Moreover, the TGI in assay [7] came to 4.56 µM; in assay [8], 12.5 µM; in assay [9] it was 3.4 µM; in assay [10], 6.04 µM.

On to `c1ccc2cc(Cn3cc[n+](Cc4ccc5ccccc5c4)c3)ccc2c1`, for which the GI50 was 1.28 µM in assay [1]; 4.4 µM in assay [2]; 13.7 µM in assay [3]; > 100 µM in assay [4]; 1.5 µM in assay [5]; 0.659 µM in assay [6]. In addition, the GI50 in assay [7] was 0.901 µM; in assay [8], 0.328 µM; in [9] it was 3.32 µM; in [10], 1240 nM. For the same compound, the TGI was 11.1 µM in assay [1]; 19 µM in [2]; 27.6 µM in [3]; > 100 µM in [4]; 11 µM in [5]; 3.75 µM in assay [6]. Moreover, the TGI in [7] was 10.1 µM; in assay [8] it was 2.91 µM; in [9], 14.3 µM; in assay [10] it was 8.38 µM.

As for `Cc1cc(C(=O)Nc2cc(Oc3ccc4nc(NC(=O)C5CC5)cn4n3)ccc2C)n(C)n1`, the GI50 in assay [1] is > 10 µM; in assay [2] it was > 10 µM; in assay [3], > 10 µM; in assay [4], > 10 µM; in assay [5], > 10 µM; in [6], 5.06 µM. Further, the GI50 in assay [7] is > 10 µM; in [8], > 10 µM; in assay [9], > 10 µM; in assay [10], > 10000 nM. Besides, the TGI in assay [1], in [2], in assay [3], in assay [4], in assay [5] and in assay [6] was > 10 µM throughout. The TGI in [7], in [8], in [9] and in [10] was > 10 µM throughout.

Consider `O=C1OCC(c2ccc(O)cc2)=C1c1cc(O)c(O)c(O)c1`, for which the GI50 was > 100 µM in [1]; 62.5 µM in assay [2]; > 100 µM in assay [3]; 25.2 µM in [4]; 31.4 µM in assay [5]; > 100 µM in [6]. The GI50 in [7] is > 100 µM; in [8] it was > 100 µM; in assay [9], > 100 µM; in [10], > 100000 nM. Moreover, the TGI in assay [1] is > 100 µM; in [2] it was > 100 µM; in [3] it was > 100 µM; in [4], 62.8 µM; in [5] it was > 100 µM; in [6] it was > 100 µM. Further, the TGI in assay [7], in [8], in [9] and in assay [10] was > 100 µM in each case.

On to `c1cc(CN2CCCNCCNCCCNCC2)ccc1CN1CCCNCCNCCCNCC1`, for which the GI50 in assay [1], in assay [2], in [3], in assay [4], in assay [5] and in assay [6] was > 100 µM in each case. The GI50 in [7] was > 100 µM; in assay [8] it was > 100 µM; in assay [9], > 100 µM; in assay [10], > 100000 nM. Further, the TGI in assay [1], in [2], in assay [3], in assay [4], in [5] and in assay [6] was > 100 µM throughout. Also, the TGI in assay [7], in assay [8], in assay [9] and in assay [10] was > 100 µM throughout.

On to `COc1cccc(Sc2ccc([N+](=O)[O-])c3no[n+]([O-])c23)c1`, for which the GI50 was 12.5 µM in assay [1]; 19.5 µM in assay [2]; 2.84 µM in assay [3]; 5.97 µM in assay [4]; 13.1 µM in assay [5]; 5.63 µM in [6]. Moreover, the GI50 in [7] is 7.14 µM; in assay [8], 13.9 µM; in [9], 10.9 µM; in [10] it was 4270 nM. In addition, the TGI in assay [1] was 30 µM; in [2], 34.8 µM; in assay [3], 8.78 µM; in [4] it was 19.1 µM; in [5], 30.3 µM; in assay [6], 20.8 µM. In addition, the TGI in assay [7] is 25 µM; in assay [8] it was 39.4 µM; in assay [9], 24.7 µM; in [10] it was 16.5 µM.

With `CCN1C(=O)N(CC)C2C1NN=c1s/c(=C\c3cccs3)c(=O)n12` (stereo not drawn), the GI50 in assay [1] is 1.67 µM; in assay [2], 1.03 µM; in [3] it was 0.253 µM; in assay [4], 0.0831 µM; in assay [5] it was 0.245 µM; in assay [6], 0.217 µM. Further, the GI50 in assay [7] was 0.375 µM; in assay [8], 0.0976 µM; in assay [9] it was > 100 µM; in assay [10], 396 nM. Moreover, the TGI in assay [1], in assay [2], in assay [3], in [4], in assay [5] and in [6] was > 100 µM throughout. The TGI in [7], in [8], in assay [9] and in assay [10] was > 100 µM in each case.

Regarding `CN(C)C[C@H]1CCn2c(c(C3=C(c4cn(C)c5ccccc45)C(=O)NC3=O)c3ccccc32)C1`, the GI50 in assay [1] was 4.71 µM; in assay [2], 4.78 µM; in [3], 4.3 µM; in assay [4], 5.67 µM; in assay [5], 3.98 µM; in [6], 6.11 µM. The GI50 in assay [7] is 6.58 µM; in assay [8], 0.562 µM; in assay [9], 3.61 µM; in [10], 6380 nM. Further, the TGI worked out at 9.04 µM in assay [1]; 9.29 µM in assay [2]; 9.87 µM in [3]; 14.2 µM in [4]; 8.2 µM in [5]; 12.2 µM in assay [6]. The TGI in [7] was found to be 15 µM; in [8] it was 5.16 µM; in assay [9], 8.77 µM; in [10], 14 µM.

For the compound `CC/C=C\C[C@H](O)C/C=C1/C(=O)C=C[C@@H]1C/C=C\CCCC(=O)OC(C)C`, the GI50 is 2 µM in assay [1]; 1.9 µM in assay [2]; 1.88 µM in [3]; 3.11 µM in assay [4]; 0.48 µM in assay [5]; 2.43 µM in assay [6]. For the same compound, the GI50 was 1.73 µM in [7], 4.78 µM in [8], 3.54 µM in assay [9] and 1240 nM in [10]. Also, the TGI is 6.31 µM in assay [1]; 3.72 µM in [2]; 3.79 µM in assay [3]; 17.2 µM in assay [4]; 1.74 µM in assay [5]; 7.75 µM in assay [6]. Also, the TGI turned out to be 4.37 µM in [7], 19.7 µM in [8], 9.31 µM in assay [9] and 6.36 µM in [10].

For the origin of these results see PubChem BioAssay (NCI).
